Results on two compounds are retold here after patent US8318737B2, “Compounds and compositions for treating cancer” (Canthera Therapeutics Inc., priority 2009, dated 2012).

Data set [1] is described as follows: precipitation of DMSO solution diluted 1:10 in phosphate buffered saline or water. In kind it is physicochemical. How it is done:
The compounds of the present invention may be produced using piperlongumine as a starting material yet offer numerous advantages over piperlongumine. […] The compounds of the instant invention are highly soluble in water at concentration of at least 25 mg/mL facilitating pharmaceutical preparation and delivery. Many chemotherapeutic agents transiently increase ROS levels in both cancer cells and normal cells.

A further data set is described as follows: solubility in water. In kind it is physicochemical.

In brackets after ≈: the same amount, converted by molar mass. Counter-ions that a name gives are not always drawn.

Consider `COc1cc(/C=C/C(=O)N2CCC=CC2=O)cc(OC)c1OC` [piperlongumine, Piperlongumine], for which the “concentration in DMSO that precipitated out when diluted 1:10” value in data set [1] is given as “more than 0.25 mg/ml”. In the data set “solubility in water”, this compound returned a solubility in water of 0.1 mg/mL (≈ 315 µM). One may read the solubility as how much of the substance goes into solution per volume. A higher solubility goes with much dissolved substance. For `COc1cc(/C=C/C(=O)N2CCC=CC2=O)cc(OC)c1OCCN1CCOCC1` [tartrate salt of compound one], the solubility in the data set “solubility in water” was 100 mg/mL.
